Measured values taken from publication PMC12186263, “Molecular Basis for Peptide Nitration by a Novel Cytochrome P450 Enzyme in RiPP Biosynthesis” (ACS Catalysis, 2025).
Square brackets hold non-standard residues; d marks the D form. Ends that are not written are not given here. Peptide text beside a SMILES is read from it. Nle = CCCC[C@H](N)C(=O)O

How the values were obtained:
TxtE [1] = biological target: T1, TxtE (Streptomyces scabiei, UniProt C9ZDC6); experiment: UV-vis of TxtE with Trp; assay type: binding; conditions: 2 μM TxtE, 0.5 mM Trp
T1 sequence (C9ZDC6 1-406): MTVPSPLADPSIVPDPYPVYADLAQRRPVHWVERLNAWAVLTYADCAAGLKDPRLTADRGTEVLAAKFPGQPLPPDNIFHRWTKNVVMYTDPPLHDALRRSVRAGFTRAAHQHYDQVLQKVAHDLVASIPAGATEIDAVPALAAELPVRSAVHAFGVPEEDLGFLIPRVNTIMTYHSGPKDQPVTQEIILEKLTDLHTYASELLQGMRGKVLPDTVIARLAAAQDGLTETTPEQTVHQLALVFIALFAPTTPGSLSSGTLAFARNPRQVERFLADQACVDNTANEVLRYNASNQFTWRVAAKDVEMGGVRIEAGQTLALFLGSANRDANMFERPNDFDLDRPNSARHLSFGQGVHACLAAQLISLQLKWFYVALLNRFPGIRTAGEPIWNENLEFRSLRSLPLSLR
Experimental: (§1) Figure S1. Spectroscopic and ITC analysis of substrate binding in TxtE
(§2) (A) UV-vis spectra of 2 μM TxtE in the absence (black trace) and presence (red trace) of 0.5 mM
Trp; (B) ITC experiment of Trp titration to TxtE. […]
(§3) (1 picture or pasted object on this page, not shown here)

TxtE [2] = biological target: T1, TxtE; experiment: ITC of Trp titration to TxtE; assay type: binding; conditions: 2 mM Trp into 50 μM TxtE
Experimental: as §1, §2
(§4) Trp; (B) ITC experiment of Trp titration to TxtE.
(§5) power observed with successive injections of 2 mM Trp to 50 μM TxtE after baseline correction.
(§6) consistent with a single binding site (red line). (C) Resonance Raman spectra of 100 μM TxtE in
(§7) the absence (top) and presence (bottom) of 1 mM Trp.
as §3

TxtE [3] = biological target: T1, TxtE; experiment: Resonance Raman of TxtE with Trp; assay type: binding; conditions: 100 μM TxtE, 1 mM Trp
Experimental: All rR measurements were carried out in 180° backscattering geometry, with scattered light focused by a cylindrical lens (Nikon). The beam passed through a 405 nm notch filter (Thorlabs) for ferric samples or a 442 nm notch filter (Iridian) for ferrous-CO samples, before entering an iHR550 spectrometer (Horiba Scientific). The spectrometer was configured with a 120-μm entrance slit and a 1200 grooves/mm grating (estimated spectral resolution of 10 cm^–1) for ferric samples, or a 350-μm slit and 2400 grooves/mm grating (estimated spectral resolution of 10 cm^–1) for ferrous-CO samples, with detection by a liquid nitrogen-cooled Symphony CCD detector (Horiba Scientific). The accuracy of absolute frequencies is about ±1 cm^–1 based on duplicated measurements. Measurements were conducted at room temperature in 5 mm NMR tubes constantly spinning to prevent local heating and protein degradation. The acquisition times for ferric and CO-bound samples were set to 40 min and 2 h, respectively. UV–vis spectra were recorded before and after the measurements to ensure no photodegradation occurred. rR spectra were calibrated with fenchone (for all samples) and acetone-d 6 (for ferrous-CO samples in high-frequency regions) and processed using GRAMS/AI software (ThermoFisher).
as §1, §2, §4, §5, §6, §7, §3

ferrous RufO = experiment: Stopped-flow transient kinetics of O2 and •NO binding to ferrous RufO; conditions: 4 °C; for association rate constant k1: 3.3 μM ferrous RufO, pH 8.0, linear fit
Experimental: 5 Transient kinetics of ferrous RufO binding to O2 and ^•NO. Spectral changes following the rapid mixing of 3.3 μM ferrous RufO bound to MRYLH with (A) 18 μM O2 and (C) 70 μM ^•NO over 0.2 s. The black-to-red spectral transitions represent the formation of (A) a ferric-superoxo intermediate and (C) a ferrous-nitrosyl complex. Insets show the time-dependent absorbance changes at 438 nm (the most pronounced shift), fitted using single exponential equations to determine rate constants (red trace). Dependence of rate constant as a function of gas concentration on (B) O2 and (D) ^•NO binding to ferrous RufO alone (blue) and peptide-bound RufO (red). Second-order rate constants were determined through linear fitting. TEXT PRINTED IN THE PICTURE: (A) + O2: kobs = 74.3 s^-1 | (B) RufO alone: k1 = 3.55 μM^-1 s^-1 | (B) peptide-bound: k1 = 3.83 μM^-1 s^-1 | (C) + •NO: kobs = 107.4 s^-1 | (D) RufO alone: k1 = 4.12 μM^-1 s^-1 | (D) peptide-bound: k1 = 2.35 μM^-1 s^-1
Stopped-flow spectroscopic data were collected using an Applied Photophysics SX20 stopped-flow system equipped with a photodiode array detector. The system was maintained in an anaerobic chamber (O2 < 1 ppm) and all sample preparation was done anaerobically. Measurements were performed at 4 °C. All samples were prepared in a buffer containing 50 mM Tris-HCl and 100 mM NaCl, pH 8.0. RufO was prereduced with a minimal amount of sodium dithionite. The final mixed concentrations of RufO and MRYLH (where applicable) were 3.3 and 24 μM, respectively. Solutions of varying O2 concentrations were prepared by diluting air-saturated buffer with anaerobic buffer. The concentrations of O2 in the air-saturated buffer were measured with an Oxygraph+ oxygen electrode (Hansatech). To generate ^•NO-containing solutions, 0.5 mM DEA NONOate (≥98%, Cayman Chemical) was incubated in anaerobic buffer for 4 h to ensure complete ^•NO release. The ^•NO concentrations were quantified based on a hemoglobin assay, and further dilutions were made with anaerobic buffer immediately prior to mixing. Experimental data were analyzed by the ProK software package from Applied Photophysics. The second-order rate constants were obtained from linear fitting, with the resulting equations: y = 3.55x + 54.4 for the mixing of RufO with O2, y = 3.83x + 6.5 for the ES complex with O2, y = 4.12x −158.0 for RufO with ^•NO, and y = 2.35x – 58.9 for the ES complex with ^•NO.
Figure S9. Transient kinetics of ferrous RufO alone binding to O2 and •NO Spectral changes following the rapid mixing of 3.3 μM ferrous RufO with (A) 18 μM O 2 and […] superoxo intermediate and (B) a ferrous-nitrosyl complex. Insets show the time-dependent absorbance changes at 438 nm (the most pronounced shift), fitted using first-order exponential equations to determine rate constants (red trace).
as §3

RufO [4] = biological target: T2, RufO (Streptomyces atratus, UniProt A0A224AU14); experiment: X-band cw EPR of RufO with peptide; assay type: binding; conditions: 100 μM RufO, 2 mM peptide, 10 K; double-integrated intensities
T2 construct: made in house
T2 sequence (A0A224AU14 1-394): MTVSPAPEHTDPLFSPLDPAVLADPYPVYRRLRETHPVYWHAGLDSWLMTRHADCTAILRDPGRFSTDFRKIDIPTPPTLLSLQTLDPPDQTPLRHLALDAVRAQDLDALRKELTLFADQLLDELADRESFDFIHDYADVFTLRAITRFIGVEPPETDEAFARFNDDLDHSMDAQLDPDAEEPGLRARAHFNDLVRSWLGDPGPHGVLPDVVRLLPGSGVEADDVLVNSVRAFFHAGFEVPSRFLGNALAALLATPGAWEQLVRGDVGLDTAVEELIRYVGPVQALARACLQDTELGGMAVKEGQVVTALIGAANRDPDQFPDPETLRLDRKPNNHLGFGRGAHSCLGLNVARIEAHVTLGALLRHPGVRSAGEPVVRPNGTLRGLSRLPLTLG
Experimental: 3 Spectroscopic characterization of the RufO heme center with and without peptide substrates. (A) X-band continuous wave EPR spectra of RufO (black), RufO with 2 mM MRYLH (red), and RufO with 2 mM Nle-RYLH (blue), measured at 10 K and 1 mW microwave power. The minor species marked by asterisks likely arise from conformational heterogeneity of the heme center or a freezing artifact. (B) rR spectra of RufO (top), RufO with 2 mM MRYLH (middle), and RufO with 2 mM Nle-RYLH (bottom). The spectra were collected using a 405 nm excitation laser at 5 mW. (C) rR spectra of CO adducts of ferrous RufO (top) and ferrous RufO with 2 mM Nle-RYLH (bottom). Spectra were collected using a 442 nm excitation line at 1 mW. (D) Backbonding correlations between v(Fe–C) and v(C–O) stretching frequencies for various CYPs in the absence (squares) and presence (circles) of ligands. […]
EPR samples were prepared by mixing 100 μM RufO in the same buffer with 5% glycerol and either 2 mM MRYLH or Nle-RYLH, followed by flash-freezing in 4 mm quartz EPR tubes. […] Each sample was measured at 9.35 GHz microwave frequency at 10 K using 1 mW microwave power. All spectra were recorded with four averaged scans using an ER4119HS resonator at a modulation frequency of 100 kHz and a modulation amplitude of 0.4 mT. The conversion rate of the low-spin species was determined by comparing the double-integrated intensities of the signals. […]

RufO [5] = biological target: T2, RufO; experiment: RufO nitration activity assay (HPLC); assay type: biochemical; conditions: 20 μM RufO, 1 mM peptide, SpFdX/SpFdR, pH 8.0, 25 °C, 30 min; highest rate set as 100%; triplicate
Experimental: Each assay was performed in triplicate and contained 20 μM CYP enzyme, 80 μM ferredoxin, 40 μM reductase, 1 mM substrate, 1 mM NADH/NADPH, 1 mM DEA NONOate (≥98%, Cayman Chemical), and 132 μL O2-saturated buffer (50 mM Tris, 100 mM NaCl at pH 8.0, bubbled for 30 min) for a final reaction volume of 200 μL. Reactions with CPR in place of the ferredoxin/reductase system contained 40 μM CPR. Reactions were incubated at 25 °C with shaking at 300 rpm for 30 min, then filtered using a 10 kDa cutoff centrifugal filter (Millipore) and analyzed by HPLC. Filtrate was analyzed on an InertSustain C18 column (5 μm particle size, 4.6 mm × 100 mm, GL Sciences Inc.) on a Thermo Fisher Scientific Ultimate-3000SD HPLC rapid separation system equipped with a photodiode array detector. The flow rate was set at 1 mL/min. For RufO assays, solvent A was water and solvent B was 90% acetonitrile (ACN) in water with 0.1% trifluoroacetic acid (TFA). A gradient of 0–70% solvent B was applied over 15 min. For collection of peptide product peaks for mass spectrometry analysis, TFA in solvent B was replaced with formic acid (FA). The method for TxtE assays used water with 0.1% FA as solvent A and ACN with 0.1% FA as solvent B. A gradient of 0–20% solvent B was applied over 10 min, followed by a 5 min hold at 20% solvent B. All presented traces were monitored at an absorbance wavelength of 280 nm. […]

RufO [6] = biological target: T2, RufO; experiment: Isothermal titration calorimetry, peptide into RufO; assay type: binding; conditions: ITC, 20 °C, 190 μM RufO, 50 mM Tris-HCl, 100 mM NaCl pH 7.5, one set of sites, control subtracted
Experimental: ITC experiments were conducted at 20 °C using a MicroCal PEAQ-ITC instrument (Malvern Panalytical). RufO was prepared in a buffer containing 50 mM Tris-HCl and 100 mM NaCl at pH 7.5. The reference cell was filled with water. Each experiment involved 190 μM RufO in the sample cell, titrated with either 2.5 mM MRYLH or 2.8 mM Nle-RYLH in the syringe. Control experiments replaced the protein in the cell with buffer. The titration protocol included an initial 0.4 μL injection (excluded from analysis), followed by 19 injections of 2 μL at 2.5 min intervals. The cell was continuously stirred at 750 rpm. Data analysis was conducted using MicroCal PEAQ-ITC Analysis Software, with heats of dilution determined from the plateau region of the thermograms and subtracted from each integrated peak. All titrations are baseline corrected. The final integrated enthalpic changes were obtained by subtracting the controls from the protein-peptide titrations and fitted to a “one set of sites” binding model.

[7] = biological target: T3, MRYLH pentapeptide (RufO substrate) (Streptomyces atratus); experiment: ITC
T3 chain: MRYLH

N[C@@H](Cc1c[nH]c2ccccc12)C(=O)O [Trp, L-tryptophan]
Soret band position on substrate binding (TxtE [1]): 390 nm
ΔS, in words (TxtE [2]): negative ΔS
Kd (TxtE [2]; single binding site): 16000 nM
ΔH (TxtE [2]; single binding site, exothermic): -14.6 kcal/mol
low-spin ν10 (1640 cm^–1), in words (TxtE [3]): disappearance
ν4 on Trp binding (TxtE [3]; initially 1374 cm^–1): 1373 cm^–1
ν3 on Trp binding (TxtE [3]; initially 1504 cm^–1, six- to five-coordinate high-spin conversion): 1488 cm^–1
ν2 on Trp binding (TxtE [3]; initially 1588 cm^–1): 1570 cm^–1

nitric oxide [•NO]
kobs (ferrous RufO; MRYLH-bound ferrous RufO 3.3 μM, 70 μM •NO, 438 nm, single exponential): 107.4 s⁻¹
association rate constant k1 (ferrous RufO; MRYLH-bound, 24 μM MRYLH): 2.35 μM^–1 s^–1
association rate constant k1 (ferrous RufO; RufO alone): 4.12 μM^–1 s^–1
•NO concentration below which nitrosyl complex not detectable (ferrous RufO; RufO alone): < 50 µM
•NO concentration below which nitrosyl complex not detectable (ferrous RufO; peptide-bound RufO): < 70 µM

CCCC[C@H](N)C(=O)N[C@@H](CCCNC(=N)N)C(=O)N[C@@H](Cc1ccc(O)cc1)C(=O)N[C@@H](CC(C)C)C(=O)N[C@@H](Cc1c[nH]cn1)C(=O)O [Nle-RYLH] (H-[Nle]RYLH-OH)
conversion of original low-spin species to new low-spin species (RufO [4]): 84%
conversion rate (normalized) (RufO [5]): 100%
Kd (RufO [6]): 1600 nM

MRYLH [MRYLH]
conversion of original low-spin species to new low-spin species (RufO [4]): 84%
Kd (RufO [6]): 780 ± 300 nM

B1: RufO (protein)
chain: MTVSPAPEHTDPLFSPLDPAVLADPYPVYRRLRETHPVYWHAGLDSWLMTRHADCTAILRDPGRFSTDFRKIDIPTPPTLLSLQTLDPPDQTPLRHLALDAVRAQDLDALRKELTLFADQLLDELADRESFDFIHDYADVFTLRAITRFIGVEPPETDEAFARFNDDLDHSMDAQLDPDAEEPGLRARAHFNDLVRSWLGDPGPHGVLPDVVRLLPGSGVEADDVLVNSVRAFFHAGFEVPSRFLGNALAALLATPGAWEQLVRGDVGLDTAVEELIRYVGPVQALARACLQDTELGGMAVKEGQVVTALIGAANRDPDQFPDPETLRLDRKPNNHLGFGRGAHSCLGLNVARIEAHVTLGALLRHPGVRSAGEPVVRPNGTLRGLSRLPLTLG
Kd [7]: 780 nM
